Test results: ChEMBL document CHEMBL4229520, “Design and synthesis of C10 modified and ring-truncated canthin-6-one analogues as effective membrane-active antibacterial agents” (Bioorg Med Chem Lett, 2018)
pIC50: −log10 of the molar value. Converted amounts (≈) assume the structure as drawn. The source made the active and inactive calls. The rule behind the calls is not given here.

Tests used:
[1] = tested on: Bacillus subtilis; test: Antibacterial activity against Bacillus subtilis after 12 to 14 hrs; assay type: functional
[2] = tested on: Staphylococcus aureus; test: Antibacterial activity against methicillin-resistant Staphylococcus aureus after 12 to 14 hrs; assay type: functional
[3] = tested on: Ralstonia solanacearum; test: Antibacterial activity against Ralstonia solanacearum after 12 to 14 hrs; assay type: functional
[4] = tested on: Bacillus cereus; test: Antibacterial activity against Bacillus cereus after 12 to 14 hrs; assay type: functional
[5] = tested on: Staphylococcus aureus; test: Antibacterial activity against Staphylococcus aureus after 12 to 14 hrs; assay type: functional
[6] = tested on: Staphylococcus aureus; test: Induction of membrane damage in Staphylococcus aureus at 1 ug/ml after 1 hr by Hoechst/propidium iodide staining-based fluorescence microscopic method; assay type: functional, organism-based
[7] = tested on: Radish; test: Allelopathic activity against Raphanus sativus assessed as germination rate at 4 ug/ml after 48 hrs (reference value: 92 +/- 0.47%); assay type: organism-based; settings: in vivo
[8] = Cytotoxicity against human A549 cells assessed as cell viability at 4 ug/ml after 48 hrs by MTT assay relative to control; assay type: cell-based; settings: read-out: Activity
[9] = tested on: HeLa; test: Cytotoxicity against human HeLa cells assessed as decrease in cell viability after 48 hrs by MTT assay; assay type: cell-based
[10] = Selectivity index, ratio of IC50 for human SGC7901 cells to MIC for Ralstonia solanacearum; assay type: toxicity; settings: read-out: Selectivity Index
[11] = Cytotoxicity against human SGC7901 cells assessed as cell viability at 4 ug/ml after 48 hrs by MTT assay relative to control; assay type: cell-based, SGC-7901; settings: read-out: Activity
[12] = tested on: A549; test: Cytotoxicity against human A549 cells assessed as decrease in cell viability after 48 hrs by MTT assay; assay type: cell-based; settings: A549, 48 h
[13] = Selectivity index, ratio of IC50 for human SGC7901 cells to MIC for Bacillus cereus; assay type: toxicity; settings: read-out: Selectivity Index
[14] = tested on: Staphylococcus aureus; test: Potency index, ratio of fosfomycin sodium MIC to test compound MIC for methicillin-resistant Staphylococcus aureus; assay type: functional
[15] = tested on: Triticum aestivum; test: Allelopathic activity against Triticum aestivum assessed as germination rate at 4 ug/ml after 48 hrs (reference value: 91 +/- 0.42%); assay type: organism-based; settings: in vivo
[16] = Selectivity index, ratio of IC50 for human HeLa cells to MIC for Bacillus cereus; assay type: toxicity; settings: read-out: Selectivity Index
[17] = tested on: Staphylococcus aureus; test: Induction of morphological changes in Staphylococcus aureus assessed as cell shrinkage at 1 ug/ml after 1 hr by SEM analysis; assay type: functional, organism-based
[18] = tested on: Staphylococcus aureus; test: Induction of membrane permeabilization in Staphylococcus aureus at MIC by beta-galactosidase leakage assay; assay type: functional, organism-based
[19] = tested on: Ralstonia solanacearum; test: Protection against Ralstonia solanacearum-induced infection in eggplant leaf at 4 ug/ml after 3 days relative to control; assay type: functional
[20] = tested on: L02; test: Cytotoxicity against human L02 cells assessed as decrease in cell viability after 48 hrs by MTT assay; assay type: cell-based; settings: L02, 48 h
[21] = Selectivity index, ratio of IC50 for human HeLa cells to MIC for Ralstonia solanacearum; assay type: toxicity; settings: read-out: Selectivity Index
[22] = Selectivity index, ratio of IC50 for human A549 cells to MIC for Bacillus cereus; assay type: toxicity; settings: read-out: Selectivity Index
[23] = Selectivity index, ratio of IC50 for human L02 cells to MIC for Ralstonia solanacearum; assay type: toxicity; settings: read-out: Selectivity Index
[24] = Cytotoxicity against human L02 cells assessed as cell viability at 4 ug/ml after 48 hrs by MTT assay relative to control; assay type: cell-based; settings: read-out: Activity
[25] = tested on: Staphylococcus aureus; test: Potency index, ratio of cefotaxime sodium MIC to test compound MIC for methicillin-resistant Staphylococcus aureus; assay type: functional
[26] = Selectivity index, ratio of IC50 for human L02 cells to MIC for Bacillus cereus; assay type: toxicity; settings: read-out: Selectivity Index
[27] = tested on: SGC-7901; test: Cytotoxicity against human SGC7901 cells assessed as decrease in cell viability after 48 hrs by MTT assay; assay type: cell-based; settings: SGC-7901, 48 h
[28] = Cytotoxicity against human HeLa cells assessed as cell viability at 4 ug/ml after 48 hrs by MTT assay relative to control; assay type: cell-based; settings: read-out: Activity
[29] = Selectivity index, ratio of IC50 for human A549 cells to MIC for Ralstonia solanacearum; assay type: toxicity; settings: read-out: Selectivity Index
[30] = tested on: Ralstonia solanacearum; test: Potency index, ratio of propineb MIC to test compound MIC for Ralstonia solanacearum; assay type: functional

CO/N=C(\C(=O)N[C@@H]1C(=O)N2C(C(=O)[O-])=C(COC(C)=O)CS[C@H]12)c1csc(N)n1.[Na+] [CEFOTAXIME SODIUM]
MIC [1]: 2 µg/mL
MIC [2]: 16 µg/mL
MIC [3]: 2 µg/mL
MIC [4]: 16 µg/mL
MIC [5]: 1 µg/mL

C#CCOc1ccc2c(c1)c1ccnc3ccc(=O)n2c31
MIC [1]: > 64 µg/mL
MIC [2]: > 64 µg/mL
MIC [3]: 8 µg/mL (≈ 29.2 µM)
MIC [4]: 8 µg/mL (≈ 29.2 µM)
MIC [5]: 64 µg/mL (≈ 233 µM)

c1ccc2c(c1)[nH]c1cnccc12 [NORHARMANE]
MIC [1]: > 64 µg/mL
MIC [2]: > 64 µg/mL
MIC [3]: > 64 µg/mL
MIC [4]: > 64 µg/mL
MIC [5]: > 64 µg/mL

COc1ccc2c(c1)c1c3n2C(=O)CCC3N(Cc2ccccc2)CC1 (centres undefined)
MIC [1]: > 64 µg/mL
MIC [2]: 64 µg/mL (≈ 185 µM)
MIC [3]: > 64 µg/mL
MIC [4]: > 64 µg/mL
MIC [5]: 64 µg/mL (≈ 185 µM)

COc1ccc2c(c1)c1ccnc3ccc(=O)n2c31
MIC [1]: 8 µg/mL (≈ 32 µM)
MIC [2]: 64 µg/mL (≈ 256 µM)
MIC [3]: 16 µg/mL (≈ 63.9 µM)
MIC [4]: 4 µg/mL (≈ 16 µM)
MIC [5]: > 64 µg/mL

O=C1C=CC(=O)n2c1cc1ccccc12
Activity [6]: Active
Activity [7]: 100%
viability at 48 h, 4 ug/ml [8]: 103%
pIC50 [9]: 4.08
selectivity ratio [10]: 4
MIC [1]: 2 µg/mL (≈ 10.1 µM)
viability at 48 h, 4 ug/ml [11]: 96%
pIC50 [12]: 4.01
selectivity ratio [13]: 4.9
Ratio [14]: 4
Activity [15]: 97%
selectivity ratio [16]: 4.1
Activity [17]: Active
MIC [2]: 2 µg/mL (≈ 10.1 µM)
Activity [18]: Active
MIC [3]: 4 µg/mL (≈ 20.3 µM)
MIC [4]: 4 µg/mL (≈ 20.3 µM)
Efficacy [19]: 68%
pIC50 [20]: 4.10
selectivity ratio [21]: 4.4
selectivity ratio [22]: 4.1
selectivity ratio [23]: 4
viability at 48 h, 4 ug/ml [24]: 89%
Ratio [25]: 8
selectivity ratio [26]: 4.9
MIC [5]: 2 µg/mL (≈ 10.1 µM)
pIC50 [27]: 4.05
viability at 48 h, 4 ug/ml [28]: 91%
selectivity ratio [29]: 4.4

O=C1CCC(=O)n2c1cc1ccccc12
MIC [1]: 4 µg/mL (≈ 20.1 µM)
MIC [2]: 4 µg/mL (≈ 20.1 µM)
MIC [3]: 8 µg/mL (≈ 40.2 µM)
MIC [4]: 16 µg/mL (≈ 80.3 µM)
MIC [5]: 8 µg/mL (≈ 40.2 µM)

O=C(O)CNCP(=O)(O)O [GLYPHOSATE]
Activity [7]: 78%
Activity [15]: 75%

O=C1CCC2(SCCS2)c2cc3ccccc3n21
MIC [1]: > 64 µg/mL
MIC [2]: > 64 µg/mL
MIC [3]: > 64 µg/mL
MIC [4]: > 64 µg/mL
MIC [5]: 32 µg/mL (≈ 116 µM)

COc1ccc2c(c1)c1ccnc3c1n2CCC3
MIC [1]: > 64 µg/mL
MIC [2]: 32 µg/mL (≈ 134 µM)
MIC [3]: 4 µg/mL (≈ 16.8 µM)
MIC [4]: 32 µg/mL (≈ 134 µM)
Ratio [30]: 2
MIC [5]: > 64 µg/mL

O=c1ccc2nccc3c4cc(OCc5cn(Cc6ccccc6)nn5)ccc4n1c23
MIC [1]: > 64 µg/mL
MIC [4]: > 64 µg/mL

O=C1CCC(O)c2cc3ccccc3n21 (centres undefined)
MIC [1]: 16 µg/mL (≈ 79.5 µM)
MIC [2]: 32 µg/mL (≈ 159 µM)
MIC [3]: 32 µg/mL (≈ 159 µM)
MIC [4]: 16 µg/mL (≈ 79.5 µM)
MIC [5]: 8 µg/mL (≈ 39.8 µM)

O=C1CCCC2Cc3ccccc3N12 (centres undefined)
MIC [1]: > 64 µg/mL
MIC [3]: > 64 µg/mL
MIC [4]: > 64 µg/mL
MIC [5]: > 64 µg/mL

O=C1CCCc2cc3ccccc3n21
MIC [1]: > 64 µg/mL
MIC [3]: > 64 µg/mL
MIC [4]: > 64 µg/mL
MIC [5]: > 64 µg/mL

COc1ccc2[nH]c3c(C(OC)OC)nccc3c2c1
MIC [1]: > 64 µg/mL
MIC [3]: > 64 µg/mL
MIC [4]: > 64 µg/mL
MIC [5]: > 64 µg/mL

C[C@@H]1O[C@@H]1P(=O)([O-])[O-].[Na+].[Na+] [PHOSPHOMYCIN DISODIUM]
MIC [1]: 2 µg/mL
MIC [2]: 8 µg/mL
MIC [3]: 8 µg/mL
MIC [4]: 4 µg/mL
MIC [5]: 16 µg/mL

COc1ccc2c(c1)c1cc[n+]([O-])c3ccc(=O)n2c13
MIC [1]: > 64 µg/mL
MIC [3]: > 64 µg/mL
MIC [4]: > 64 µg/mL
MIC [5]: > 64 µg/mL

O=c1ccc2nccc3c4cc(O)ccc4n1c23
MIC [1]: > 64 µg/mL
MIC [3]: > 64 µg/mL
MIC [4]: 16 µg/mL (≈ 67.7 µM)
MIC [5]: > 64 µg/mL

O=C1CCC(=O)n2ccc3cccc1c32
MIC [1]: > 64 µg/mL
MIC [3]: > 64 µg/mL
MIC [4]: > 64 µg/mL
MIC [5]: > 64 µg/mL

COc1ccc2c(c1)c1ccnc3c1n2CN(Cc1ccccc1)C3
MIC [1]: 64 µg/mL (≈ 194 µM)
MIC [3]: > 64 µg/mL
MIC [4]: 64 µg/mL (≈ 194 µM)
MIC [5]: > 64 µg/mL

COc1ccc2[nH]c3cnccc3c2c1
MIC [1]: > 64 µg/mL
MIC [2]: > 64 µg/mL
MIC [3]: > 64 µg/mL
MIC [4]: > 64 µg/mL
MIC [5]: > 64 µg/mL

COc1ccc2c(c1)c1c3n2C(=O)CCC3NCC1 (centres undefined)
MIC [1]: > 64 µg/mL
MIC [3]: > 64 µg/mL
MIC [4]: > 64 µg/mL
MIC [5]: > 64 µg/mL

COc1ccc2[nH]c3c(C=O)nccc3c2c1
MIC [1]: > 64 µg/mL
MIC [3]: > 64 µg/mL
MIC [4]: 32 µg/mL (≈ 141 µM)
MIC [5]: > 64 µg/mL

CCc1cc2nccc3c4cc(OC)ccc4n(c1=O)c23
MIC [1]: > 64 µg/mL
MIC [3]: > 64 µg/mL
MIC [4]: > 64 µg/mL
MIC [5]: > 64 µg/mL
